Measured values published in patent publication US6730792B2, “β3 adrenergic agonists” (Eli Lilly and Company, priority 2000, dated 2004).

Molecular target: T1, human β3 adrenergic receptor (Homo sapiens, UniProt P13945)
T1 construct: expressed in transfected cells; host or cells: DXB-11 Chinese hamster ovary (CHO) cell line, stably transfected (phd expression vector)
Assay: whole cell receptor coupled c-AMP assay, human β3 receptor in CHO cells (EC50, Emax relative to isoproterenol)
Type: cell-based
Settings: Emax ± standard error of the mean; average of at least 3 runs except where n = 1; compound tested in the isolated form listed
Excerpt: The genes encoding the human β1-adrenergic receptor (Frielle et al., Proc. Natl. Acad. Sci., 84:7920-7924, 1987), the human β2-adrenergic receptor (Kobika et al., Proc. Natl. Acad. Sci., 84:46-50, 1987, Emorine et al., Proc. Natl. Acad. Sci., 84:6995-6999, 1987) and the human β3 adrenergic receptor (Granneman et al., Molecular Pharmacology, 44(2):264-70, 1993) are individually subcloned into a phd expression vector (Grinnell et al., Bio/Technology, 5:1189-1192, 1987) and transfected into the DXB-11 Chinese hamster ovary (CHO) cell line by calcium phosphate precipitation methodology. The stably transfected cells are grown to 95% confluency in 95% Dulbecco's modified Eagles Medium (DMEM), 5% fetal bovine serum and 0.01% proline. Media is removed and the cells are washed with phosphate buffered (pH 7.4) saline (without magnesium and calcium). Cells are then lifted using an enzyme free cell dissociation solution (Specialty Media, Lavallette, N.J.) and pelleted by centrifugation.
Cells from each of the above cell lines are resuspended and added (20,000/well) to a 96-well plate. Cells are incubated at 37° C. with representative compounds of the invention for 20 minutes in buffer (Hank's balanced salt solution, 10 mM HEPES, 0.1% BSA, 1 mM L-ascorbic acid, 0.2% dimethyl sulfoxide, 1 mm 3-isobutyl-1-methylxanthine, pH 7.4). After halting the incubation with quench buffer (50 mM Na Acetate, 0.25% Triton X-100, pH 5.8), the c-AMP level is quantified by scintillation proximity assay (SPA) using a modification of the commercially available c-AMP kit (Amersham, Arlington Heights, Ill.) with rabbit anti-cAMP antibody (ICN Biomedicals, Aurora, Ohio) for the kit.
Sigmoidal dose response curves, from the whole cell receptor coupled c-AMP assay are fit to a four parameter logistic equation using non linear regression: y=(a−d)/(1+(Dose/c)^b)+d where a and d are responses at zero and maximal dose, b is the slope factor and c is the EC50 as previously described (DeLean et al., Am. J. Physiol., 235, E97-E102, 1978). EC50 is assessed as the concentration producing 50% of the maximum response to each agonist.
Isoproterenol is accepted in the art as a non-selective β3 agonist and is widely used as a comparator in evaluating the activity of compounds. See Trends in Pharm. Sci., 15:3, 1994. The % intrinsic activity (Emax) of representative compounds of the invention is assessed relative to isoproterenol by the compound's maximal response divided by the isoproterenol maximal response times 100.

T1 sequence (P13945 whole entry): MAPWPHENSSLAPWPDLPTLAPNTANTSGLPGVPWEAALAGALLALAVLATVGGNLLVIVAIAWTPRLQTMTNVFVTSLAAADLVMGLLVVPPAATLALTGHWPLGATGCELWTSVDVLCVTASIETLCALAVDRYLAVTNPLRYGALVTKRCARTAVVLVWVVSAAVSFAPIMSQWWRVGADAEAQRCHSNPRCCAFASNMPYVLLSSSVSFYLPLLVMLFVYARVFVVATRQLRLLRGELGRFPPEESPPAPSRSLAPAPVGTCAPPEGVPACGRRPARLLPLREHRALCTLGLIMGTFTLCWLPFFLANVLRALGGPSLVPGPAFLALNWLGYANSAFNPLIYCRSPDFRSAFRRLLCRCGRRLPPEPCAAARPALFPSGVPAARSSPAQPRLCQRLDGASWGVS

Question: With `CCOC(=O)c1cccnc1Oc1ccc(CC(C)(C)NC[C@H](O)COc2ccccc2-c2ccn(C)n2)cc1` [Example 106] as the compound, how does the “Emax (%) ± SEM” value read?
Answer: Its value is 53.2 ± 2.4%.

Question: How did the “Emax (%) ± SEM” value turn out when `CCOC(=O)c1cccnc1Oc1ccc(CC(C)(C)NC[C@H](O)COc2ccccc2-c2cccs2)cc1` [Example 107] was run?
Answer: The value was 84.3 ± 5.3%.

Question: For `CCOC(=O)c1cccnc1Oc1ccc(CC(C)(C)NC[C@H](O)COc2ccccc2-c2cccs2)cc1.O=C(O)C(F)(F)F` [Example 108], which “Emax (%) ± SEM” value is on record?
Answer: Its value is 87.1 ± 11.9%.

Question: For `CCOC(=O)c1cccnc1Oc1ccc(CC(C)(C)NC[C@H](O)COc2ccccc2-c2nccs2)cc1` [Example 109], which “Emax (%) ± SEM” value is on record?
Answer: Its value is 61.4 ± 4.4%.

Question: For `CCOC(=O)c1cccnc1Oc1ccc(CC(C)(C)NC[C@H](O)COc2ccccc2-c2ccno2)cc1` [Example 110], which “Emax (%) ± SEM” value is on record?
Answer: The value was 60.3 ± 3.9%.

Question: `CCOC(=O)c1cccnc1Oc1ccc(CC(C)(C)NC[C@H](O)COc2ccccc2-c2ccn[nH]2)cc1` [Example 111] was tested. Which “Emax (%) ± SEM” value did it give?
Answer: The value was 23.6 n = 1%.

Question: For `CCOC(=O)c1cccnc1Oc1ccc(CC(C)(C)NC[C@H](O)COc2ccccc2-c2ccno2)cc1.O=C(O)C(F)(F)F` [Example 112], which “Emax (%) ± SEM” value is on record?
Answer: Its value is 56.9 ± 8.6%.

Question: Which “Emax (%) ± SEM” value does the source give for `COC(=O)c1ccc(Oc2ccc(CC(C)(C)NC[C@H](O)COc3ccccc3-c3ccnn3C)cc2)nc1` [Example 113] here?
Answer: Its value is 20.7 n = 1%.

Question: `COC(=O)c1ccc(Oc2ccc(CC(C)(C)NC[C@H](O)COc3ccccc3-c3ccn(C)n3)cc2)nc1` [Example 114] was tested. Which “Emax (%) ± SEM” value did it give?
Answer: Its value is 56.6 n = 1%.

Question: How did the “Emax (%) ± SEM” value turn out when `COC(=O)c1ccc(Oc2ccc(CC(C)(C)NC[C@H](O)COc3ccccc3-c3cccs3)cc2)nc1` [Example 115] was run?
Answer: Its value is 61.9 ± 7.0%.

Question: How did the “Emax (%) ± SEM” value turn out when `COC(=O)c1ccc(Oc2ccc(CC(C)(C)NC[C@H](O)COc3ccccc3-c3nccs3)cc2)nc1` [Example 116] was run?
Answer: The value was 58.2 ± 7.2%.

Question: Which “Emax (%) ± SEM” value does the source give for `COC(=O)c1ccc(Oc2ccc(CC(C)(C)NC[C@H](O)COc3ccccc3-c3ccno3)cc2)nc1` [Example 117] here?
Answer: Its value is 32.2 ± 6.5%.

Question: How did the “Emax (%) ± SEM” value turn out when `COC(=O)c1ccc(Oc2ccc(CC(C)(C)NC[C@H](O)COc3ccccc3-c3ccn[nH]3)cc2)nc1` [Example 118] was run?
Answer: Its value is 29.5 n = 1%.

Question: With `CC(C)(Cc1ccc(Oc2ccc(C#N)cc2)cc1)NC[C@H](O)COc1ccccc1-c1cccs1.O=C(O)C(F)(F)F` [Example 119] as the compound, how does the “Emax (%) ± SEM” value read?
Answer: Its value is 55.2 ± 3.6%.

Question: With `CC(C)(Cc1ccc(Oc2ccc(C#N)cc2)cc1)NC[C@H](O)COc1ccccc1-c1nccs1.O=C(O)C(F)(F)F` [Example 120] as the compound, how does the “Emax (%) ± SEM” value read?
Answer: Its value is 35.8 ± 4.6%.

Question: Which “Emax (%) ± SEM” value does the source give for `CC(C)(Cc1ccc(Oc2ccc(C#N)cc2)cc1)NC[C@H](O)COc1ccccc1-c1ccno1.O=C(O)C(F)(F)F` [Example 121] here?
Answer: The value was 38.9 ± 7.1%.

Question: Which “Emax (%) ± SEM” value does the source give for `CC(C)(Cc1ccc(Oc2ccc(C(N)=O)cc2)cc1)NC[C@H](O)COc1ccccc1-c1cccs1.O=C(O)C(F)(F)F` [Example 123] here?
Answer: Its value is 73.6 ± 8.2%.

Question: `CC(C)(Cc1ccc(Oc2ccc(C(N)=O)cc2)cc1)NC[C@H](O)COc1ccccc1-c1nccs1.O=C(O)C(F)(F)F` [Example 124] was tested. Which “Emax (%) ± SEM” value did it give?
Answer: The value was 46.7 ± 3.6%.

Question: `CC(C)(Cc1ccc(Oc2ccc(C(N)=O)cc2)cc1)NC[C@H](O)COc1ccccc1-c1ccno1.O=C(O)C(F)(F)F` [Example 125] was tested. Which “Emax (%) ± SEM” value did it give?
Answer: Its value is 40.3 ± 7.9%.

Question: For `CC(C)(Cc1ccc(Oc2ccc(C(N)=O)cc2)cc1)NC[C@H](O)COc1ccccc1-c1ccns1.O=C(O)C(F)(F)F` [Example 126], which “Emax (%) ± SEM” value is on record?
Answer: Its value is 62.2 ± 1.3%.

Question: With `Cn1nccc1-c1ccccc1OC[C@@H](O)CNC(C)(C)Cc1ccc(Oc2ccc(S(C)(=O)=O)cc2)cc1` [Example 127] as the compound, how does the “Emax (%) ± SEM” value read?
Answer: Its value is under 10%.

Question: For `Cn1ccc(-c2ccccc2OC[C@@H](O)CNC(C)(C)Cc2ccc(Oc3ccc(S(C)(=O)=O)cc3)cc2)n1` [Example 128], which “Emax (%) ± SEM” value is on record?
Answer: Its value is 40.6 n = 1%.

Question: How did the “Emax (%) ± SEM” value turn out when `CC(C)(Cc1ccc(Oc2ccc(S(C)(=O)=O)cc2)cc1)NC[C@H](O)COc1ccccc1-c1cccs1.O=C(O)C(F)(F)F` [Example 129] was run?
Answer: The value was 53.2 ± 4.8%.

Question: With `CC(C)(Cc1ccc(Oc2ccc(S(C)(=O)=O)cc2)cc1)NC[C@H](O)COc1ccccc1-c1nccs1` [Example 130] as the compound, how does the “Emax (%) ± SEM” value read?
Answer: The value was 49.5 ± 3.4%.

Question: For `CC(C)(Cc1ccc(Oc2ccc(S(C)(=O)=O)cc2)cc1)NC[C@H](O)COc1ccccc1-c1nccs1.O=C(O)C(F)(F)F` [Example 131], which “Emax (%) ± SEM” value is on record?
Answer: The value was 43.5 ± 1.4%.

Question: `CC(C)(Cc1ccc(Oc2ccc(S(C)(=O)=O)cc2)cc1)NC[C@H](O)COc1ccccc1-c1ccno1` [Example 132] was tested. Which “Emax (%) ± SEM” value did it give?
Answer: Its value is 34.6 ± 7.8%.

Question: `CC(C)(Cc1ccc(Oc2ccc(S(C)(=O)=O)cc2)cc1)NC[C@H](O)COc1ccccc1-c1ccn[nH]1` [Example 133] was tested. Which “Emax (%) ± SEM” value did it give?
Answer: The value was 21.4 n = 1%.

Question: `CC(C)(Cc1ccc(Oc2ccc(S(C)(=O)=O)cc2)cc1)NC[C@H](O)COc1ccccc1-c1ccon1.Cl` [Example 134] was tested. Which “Emax (%) ± SEM” value did it give?
Answer: The value was 47.7 ± 6.5%.

Question: `CC(C)(Cc1ccc(Oc2ccc(S(C)(=O)=O)cc2)cc1)NC[C@H](O)COc1ccccc1-c1ccno1.O=C(O)C(F)(F)F` [Example 135] was tested. Which “Emax (%) ± SEM” value did it give?
Answer: The value was 35.2 ± 4.3%.

Question: For `CC(C)(Cc1ccc(Oc2ccc(S(C)(=O)=O)cc2)cc1)NC[C@H](O)COc1cc(F)ccc1C1=CC(=O)OC1.Cl` [Example 136], which “Emax (%) ± SEM” value is on record?
Answer: The value was under 10%.

Question: How did the “Emax (%) ± SEM” value turn out when `COC(=O)c1ccc(Oc2ccc(CC(C)(C)NC[C@H](O)COc3ccccc3-c3ccnn3C)cc2)c(Cl)c1` [Example 137] was run?
Answer: The value was under 10%.

Question: How did the “Emax (%) ± SEM” value turn out when `COC(=O)c1ccc(Oc2ccc(CC(C)(C)NC[C@H](O)COc3ccccc3-c3ccn(C)n3)cc2)c(Cl)c1` [Example 138] was run?
Answer: The value was 41.7 n = 1%.

Question: `COC(=O)c1ccc(Oc2ccc(CC(C)(C)NC[C@H](O)COc3ccccc3-c3cccs3)cc2)c(Cl)c1` [Example 139] was tested. Which “Emax (%) ± SEM” value did it give?
Answer: The value was 62.2 ± 7.4%.

Question: Which “Emax (%) ± SEM” value does the source give for `COC(=O)c1ccc(Oc2ccc(CC(C)(C)NC[C@H](O)COc3ccccc3-c3nccs3)cc2)c(Cl)c1` [Example 140] here?
Answer: The value was 48.9 ± 2.5%.

Question: Which “Emax (%) ± SEM” value does the source give for `COC(=O)c1ccc(Oc2ccc(CC(C)(C)NC[C@H](O)COc3ccccc3-c3ccno3)cc2)c(Cl)c1` [Example 141] here?
Answer: Its value is 48.3 ± 9.9%.

Question: For `COC(=O)c1ccc(Oc2ccc(CC(C)(C)NC[C@H](O)COc3ccccc3-c3ccn[nH]3)cc2)c(Cl)c1` [Example 142], which “Emax (%) ± SEM” value is on record?
Answer: The value was 20.2 n = 1%.

Question: `CC(C)(Cc1ccc(Oc2cccnc2C#N)cc1)NC[C@H](O)COc1ccccc1-c1cccs1.O=C(O)C(F)(F)F` [Example 143] was tested. Which “Emax (%) ± SEM” value did it give?
Answer: Its value is 67.2 ± 4.8%.

Question: How did the “Emax (%) ± SEM” value turn out when `CC(C)(Cc1ccc(Oc2cccnc2C#N)cc1)NC[C@H](O)COc1ccccc1-c1nccs1.O=C(O)C(F)(F)F` [Example 144] was run?
Answer: Its value is 55.9 ± 1.1%.

Question: How did the “Emax (%) ± SEM” value turn out when `CC(C)(Cc1ccc(Oc2ccc(C#N)nc2)cc1)NC[C@H](O)COc1ccccc1-c1nccs1.O=C(O)C(F)(F)F` [Example 145] was run?
Answer: The value was 44.6 ± 6.2%.

Question: With `CC(C)(Cc1ccc(Oc2cccnc2C#N)cc1)NC[C@H](O)COc1ccccc1-c1ccno1.O=C(O)C(F)(F)F` [Example 146] as the compound, how does the “Emax (%) ± SEM” value read?
Answer: The value was 58.7 ± 2.9%.

Question: `CC(C)(Cc1ccc(Oc2cccnc2C#N)cc1)NC[C@H](O)COc1ccccc1-c1ccns1.O=C(O)C(F)(F)F` [Example 147] was tested. Which “Emax (%) ± SEM” value did it give?
Answer: The value was 58.9 ± 3.6%.

Question: For `CC(C)(Cc1ccc(Oc2ncccn2)cc1)NC[C@H](O)COc1ccccc1-c1cccs1.O=C(O)C(F)(F)F` [Example 150], which “Emax (%) ± SEM” value is on record?
Answer: Its value is 69.8 ± 6.0%.

Question: Which “Emax (%) ± SEM” value does the source give for `CC(C)(Cc1ccc(Oc2ncccn2)cc1)NC[C@H](O)COc1ccccc1-c1nccs1.O=C(O)C(F)(F)F` [Example 151] here?
Answer: The value was 73.1 ± 3.8%.

Question: `CC(C)(Cc1ccc(Oc2ncccn2)cc1)NC[C@H](O)COc1ccccc1-c1ccno1.O=C(O)C(F)(F)F` [Example 152] was tested. Which “Emax (%) ± SEM” value did it give?
Answer: Its value is 45.3 ± 4.2%.

Question: With `CC(C)(Cc1ccc(Oc2cnccn2)cc1)NC[C@H](O)COc1ccccc1-c1cccs1.O=C(O)C(F)(F)F` [Example 153] as the compound, how does the “Emax (%) ± SEM” value read?
Answer: Its value is 66.8 ± 5.5%.

Question: Which “Emax (%) ± SEM” value does the source give for `CC(C)(Cc1ccc(Oc2cnccn2)cc1)NC[C@H](O)COc1ccccc1-c1nccs1.O=C(O)C(F)(F)F` [Example 154] here?
Answer: Its value is 61.1 ± 7.7%.
